Experimental data reported in patent US20080090847A1, “HETEROCYCLIC COMPOUNDS AND USES THEREOF AS D-ALANYL-D-ALANINE LIGASE INHIBITORS” (PLIVA D.D., priority 2001, published 2008).

Target: E. coli ligase (D-Ala-D-Ala ligase) (Escherichia coli, UniProt P07862)
Assay: D-Ala-D-Ala ligase Ki determination (PK/LDH coupled assay), E. coli ligase
Type: biochemical
Conditions: Table 1; read-out: Ki (E. coli ligase)/μM
Excerpt: Inhibition of D-Ala-D-Ala ligase can be assayed for using the pyruvate kinase/lactate dehydrogenase (PK/LDH) assay described in Example 2, and as described in the literature (e.g., in Sarthy et al., Anal. Biochem., 254:288-290, 1997). In the bacterial cell wall synthesis process, the ligase catalyzes the conversion of adenosine triphosphate (ATP) to adenosine diphosphate (ADP) concurrent with the ligation of two D-alanine residues to form D-alanyl-D-alanine. PK then regenerates ATP from the ADP thus created simultaneously with the conversion of phosphopyruvate to pyruvate. LDH catalyzes the reduction of pyruvate to lactate by converting NADH to NAD^+. By monitoring the production rate of NAD^+ (e.g., using UV/Vis spectroscopy), D-Ala-D-Ala ligase activity can be ascertained.
The protein sequence for the enzyme D-ala-D-ala ligase has been determined in a variety of different bacterial species using standard techniques in biochemistry (see Table 5). The protein sequence from any species can be overexpressed in an appropriate host organism such as E. coli using standard molecular biology techniques. The ligase enzyme can be harvested, purified, and used in the above described assay for the determination of inhibitory activity.
The synthetic analogs of Example 1 were dissolved in dimethylsulfoxide (DMSO) at a concentration of 100 mM on the day of screening, using a vortex mixer and sonication if necessary for dissolution. The solutions were kept at room temperature until screening was completed.
A 10 mM NADH (Sigma) stock solution was prepared freshly on the day of screening by dissolving 32 μmol NADH in 3.2 ml double-distilled water. The NADH solution was kept on ice. Stock solutions containing 50 mM phosphoenolpyruvate (PEP; Sigma), 500 μM HERMES, 30 mM adenosine triphosphate (ATP; Sigma), 200 mM D-alanine (Sigma), and 4× core buffer (i.e., 400 mM Hepes, 40 mM magnesium chloride, and 40 mM potassium chloride), were also stored on ice. A stock solution of pyruvate kinase/lactate dehydrogenase (PK/LDH) was also obtained from Sigma.
Table of Final concentrations are dependent on the type of screening:
For each set of test compounds, two 96-well plates were used: an inhibitor plate and an enzyme plate. The test compounds correspond to rows A-G of the plates. Adenosine (Sigma) dissolved in DMSO, used as a control, corresponds to row H of each plate.
The enzyme solution was allowed to equilibrate to 25° C.
Dilutions were prepared in the inhibitor plate as follows: 50 μl DMSO was added to each well of columns 1-11, rows A-G, of the inhibitor plate. 50 μl DMSO were added to each well of columns 1-11, row H. 100 μl of the 100 mM test solutions were added to column 12, rows A-G (i.e., the first compound in row A, the second compound in row B, and so on). 100 μl of a 100 mM Adenosine solution was added to column 12, row H.
50 μl of the test solution was transferred from column 12 in each row to column 11 of the a same row, mixing the solution with the DMSO. 50 μl of solution was then transferred from column 11 in each row to column 10 in the same row, 50 μl from column 10 was transferred to column 9, and so on, down to column 2. No solution was transferred to column 1. Multichannel pipettors were used in making the serial dilution.
120 μl of the enzyme solution was added to each well of the enzyme plate.
The substrate solutions were brought to 25° C.
The analogs and enzymes were then incubated at 25° C. Since the reactions were initiated in columns, the analog addition is also in columns. At t=0 minutes, 5 μl analog was transferred from each well of columns 1-4 of the inhibitor plate to the corresponding well of the enzyme plate. At t=4 minutes, 5 μl analog was transferred from each well of columns 5-8 of the inhibitor plate to the corresponding well of the enzyme plate. At t=8 minutes, 5 μl analog was transferred from each well of columns 9-12 of the inhibitor plate to the corresponding well of the enzyme plate. The inhibitor plate was then frozen. […]

Row | Compound | Ki [µM]
1 | Nc1nc(N)c2cc(NCc3ccc(C(=O)NCc4ccccn4)cc3)ccc2n1 | 73
2 | Nc1nc(N)c2ccc(-c3ccccc3)nc2n1 | 31
3 | CC(C)c1nc2nc(N)nc(N)c2nc1C(C)C | 37
4 | Nc1nc(N)c2nc(CNc3cc(Cl)cc(Cl)c3)cnc2n1 | 1
5 | Nc1nc(N)c2ncc(CNC(CO)CSCc3ccccc3)nc2n1 (stereo not shown) | 55
6 | Cc1ccc(C(C)C)cc1OCc1ncc2c(N)nc(N)nc2n1 | 20
7 | Nc1nc(N)c2cnc(CSc3ccc(Cl)cc3)nc2n1 | 12
8 | Nc1nc(N)c2cnc(NCc3ccc(Cl)c(Cl)c3)nc2n1 | 20
9 | CC(Nc1ncc2c(N)nc(N)nc2n1)C(=O)Nc1ccc2ccccc2c1 (stereo not shown) | 29
10 | Nc1nc(N)c2cnc(/C=C/c3ccccc3)nc2n1 | 14
11 | Nc1nc(N)c2cnc(N[C@H]3CCCc4ccccc43)nc2n1 | 16
12 | CN(Cc1cccc2ccccc12)c1ncc2c(N)nc(N)nc2n1 | 3
13 | CN(CCC=C1c2ccccc2CCc2ccccc21)c1ncc2c(N)nc(N)nc2n1 | 9
14 | Nc1nc(N)c2cnc(N[C@H]3CCN(Cc4ccccc4)C3)nc2n1 | 13
15 | Nc1nc(N)c2cnc(N3C4CC3N4c3ccc(Cl)cc3)nc2n1 | 12
16 | CC1C(C)N(c2ncc3c(N)nc(N)nc3n2)C(C)C(C)N1c1ncc2c(N)nc(N)nc2n1 (stereo not shown) | 2
17 | Nc1nc(N)c2cnc(NCCNC(=O)c3c(Cl)cccc3Cl)nc2n1 | 12
18 | Nc1nc(N)c2cnc(CNC(=O)/C=C/c3ccccc3)nc2n1 | 92
19 | Nc1nc(N)c2cnc(N(CCCO)Cc3ccccc3)nc2n1 | 14
20 | Nc1nc(N)c2cnc(N3CCC(O)(c4cccc(F)c4)CC3)nc2n1 | 0.59
21 | Nc1nc(N)c2cnc(Nc3ccc(Cl)c(C(=O)NCc4cccs4)c3)nc2n1 | 0.5
22 | CN(Cc1cc2ccccc2s1)c1ncc2c(N)nc(N)nc2n1 | 2.9
